Source: patent US20140142128A1, “METHODS OF TREATING A DISEASE OR DISORDER ASSOCIATED WITH BRUTON'S TYROSINE KINASE” (Celgene Avilomics Research, Inc., priority 2012, published 2014)

Columns and labels:
[1] = tested on: Btk responsive site (Tyr1217) on PLCγ2; assay: PLCγ2 phosphorylation in Ramos cells; format: cell-based; details: human Burkitt lymphoma cell line, read-out: EC50, inhibition of phosphorylation of the Btk responsive site (Tyr1217) on PLCγ2
relapsed/refractory CLL = details: lenalidomide 25 mg for 21 days of every 28-day cycle; cited from earlier work

Compound	EC50 [1]	Clinical responses (CR or PR) in subjects refractory to fludarabine (relapsed/refractory CLL)	Clinical responses (CR or PR) in subjects with del (11)(q23) and/or del (17)(p13.1) adverse cytogenetics (relapsed/refractory CLL)
C=CC(=O)Nc1cccc(Nc2nc(Nc3ccc(OCCOC)cc3)ncc2F)c1 [Compound 1, N-(3-(5-fluoro-2-(4-(2-methoxyethoxy)phenylamino)pyrimidin-4-ylamino)phenyl)acrylamide]	1 to 10 nM		
Nc1cccc2c1CN(C1CCC(=O)NC1=O)C2=O (stereo not drawn) [lenalidomide, 3-(4-amino-1-oxo-1,3-dihydro-2H-isoindol-2-yl)piperidine-2,6-dione]		30%	47%
